The results in this text go back to patent US5654116A, “Hologram” (priority 1993, dated 1997).

Data set [1] in a line: Toxicity of adhesive ingredients, LD 50 (Table 1). Type of data set: in vivo. Conditions: ingredient of the adhesive of Example 5, Table 1.
Data set [2] can be described thus: Skin irritativeness, SPI value (skin irritation value of epoxy). Conditions: for Toxicity Skin Irritativeness (SPI · %): ingredient of the adhesive of Example 5, Table 1.

In the case of “hydrogenated bisphenol A type epoxy [alicyclic epoxy]”, the “Toxicity LD 50” value in data set [1] amounted to 3900 mg/kg. Also, the “Toxicity Skin Irritativeness (SPI · %)” value in data set [2] worked out at 3 SPI · %.

Turning to `O=C1OC(=O)C2CC=CCC12` (stereo not shown) [alicyclic acid anhydride II, Tetrahydrophthalic anhydride], in data set [2], the “Toxicity Skin Irritativeness (SPI · %)” value stood at 3 SPI · %. The skin irritativeness entry in data set [2] (result in words) is recorded as “low skin irritativeness”.
